Laboratory results published in patent US11800869B2, “Use of 6-oxo-1,4,5,6-tetrahydropyridazine-3-carboxylic acid, 1-methyl 6-oxo-1,4,5,6-tetrahydropyridazine-3-carboxylic acid and 1-alkyl-6-oxo-1,4,5,6-tetrahydropyridazine-3-carboxylic acid for improving growth performance in plants” (Advanced Crop Chem LLP, priority 2020, dated 2023).
Where “and” joins values, the source holds several entries; their conditions need not be identical. Equal entries are not always repeated. Marks after values point to notes of the source that are not given here.

What was measured:
Format in all cases: in vivo
field grown wheat = test: Field grown wheat plots, foliar treatment, yield (Example 12); conditions: foliar treatment at Zadocks GS 30
Experimental: Field grown wheat plants (Var: AWC 13) were given foliar treatment at Zadoks GS 25-26 (FIG. 1) of 6-oxo-1,4,5,6 tetrahydropyridazine-3-carboxylic acid (THP) or 1-methyl 6-oxo-1,4,5,6 tetrahydropyridazine-3-carboxylic acid (MTHP) both at 100 g in 200 L water plus 0.25% Nouryon wetter. Plants were grown under standard UK wheat growing cultural practice (https://andb.org.uk/wheatgg). Yield was assessed at harvest.
Nine field grown wheat plots (20 m^2) were established. In each plot, the area was split into two and one half treated with 6-oxo-1,4,5,6 tetrahydropyridazine-3-carboxylic acid (THP) to assess for effects on yield. Plants were treated at Zadocks GS 30 as described in example 6 under standard cultural practices. The average yield response compared to the untreated plants across all sites was 0.596 tons per hectare.

[1] = tested on: wheat plants (Variety Skyfall); test: Foliar treatment of greenhouse grown wheat, foliar and root biomass (Example 4); conditions: foliar treatment, 30 days later, Zadocks growth stage 22-24
Experimental: Wheat, corn and pepper seeds were treated with 6-oxo-1,4,5,6-tetrahydropyridizine-3-carboxylic acid (THP) using the same methodology and growth conditions as described in example 1 and the resulting plants were also treated with a light foliar cover spray using an electric hand-held sprayer. (100 g in 200 L water plus 0.25% Nouryon wetter) of 6-oxo-1,4,5,6 tetrahydropyridazine-3-carboxylic acid (30 days post emergence (wheat at Zadoks GS 14 (see FIG. 1), maize at V2, Pepper at 3-4 leaf stage) and then assessed for root and shoot biomass 45 days later. At 75 days post planting the plants were assessed for root and shoot biomass as measured with dry weight. Greenhouse grown wheat plants (Variety […]) were given foliar treatment of 1-methyl 6-oxo-1,4,5,6 tetrahydropyridazine-3-carboxylic acid (MTHP) or 6-oxo-1,4,5,6 tetrahydropyridazine-3-carboxylic acid (THP), utilizing the same methodology as in example 2. Foliar and root biomass were determined 30 days later at Zadocks growth stage 22-24.

Wheat = test: Foliar treatment dose series, root and shoot fresh weight, wheat (Example 8); conditions: 35 days post treatment; for Root, FWt: dose 0: 1.8; for Shoot, FWt: dose 0: 3.2
Experimental: Corn and wheat plants were given a foliar treatment […] (as described in Example 2) with 6-oxo-1,4,5,6 tetrahydropyridazine-3-carboxylic acid (THP) and then assessed for root and shoot biomass. Three treatment dosages were applied (Table 2). Plants were grown in a greenhouse with a diurnal cycle of 55-75F with ambient light. The plants were grown in a coarse river sand in 4″ pots with 0.5 g of Osmacote/pot. The mean root and shoot fresh weights were assessed at 35 days post treatment.

Corn = test: Seed treatment plus foliar spray, root and shoot biomass and emergence, corn (Example 2)
Experimental: (§1) Winter wheat variety AWC 13 seeds were treated with either 6-oxo-1,4,5,6-tetrahydropyridazine-3-carboxylic acid (THP) or 1-methyl 6-oxo-1,4,5,6 tetrahydropyridazine-3-carboxylic acid (MTHP) at an effective rate of 10g diluted in 2 L water plus 0.25% Nouryon wetter and applied to 1 ton of seed. These seed were planted in coarse river sand and grown in a greenhouse under ambient light at the greenhouse at 21° C. Plants were irrigated every other day with water containing 50% strength Hoaglands solution. Plants were assessed for emergence and biomass accumulation 30 days after planting. The plants from seeds treated with 6-oxo-1,4,5,6-tetrahydropyridizin-3-carboxylic acid or 1-methyl 6-oxo-1,4,5,6 tetrahydropyridazine-3-carboxylic acid had larger root biomasses (0.83, 0.85 g, dry weight/plant) compared with plants from untreated seeds (0.65 g dry weight/plant). Wheat, corn and pepper seeds were treated with 6-oxo-1,4,5,6-tetrahydropyridizine-3-carboxylic acid (THP) using the same methodology and growth conditions as described in example 1 and the resulting plants were also treated with a light foliar cover spray using an electric hand-held sprayer. (100 g in 200 L water plus 0.25% Nouryon wetter) of 6-oxo-1,4,5,6 tetrahydropyridazine-3-carboxylic acid (30 days post emergence (wheat at Zadoks GS 14 (see FIG. 1), maize at V2, Pepper at 3-4 leaf stage) and then assessed for root and shoot biomass 45 days later. At 75 days post planting the plants were assessed for root and shoot biomass as measured with dry weight.

[2] = tested on: wheat (Var. VitPro) seedlings; test: Foliar treatment of wheat, relative water content under drought stress (Example 17); conditions: drought stressed, flag leaves, untreated drought stressed 35.8%
Experimental: Wheat seedlings were given foliar treatments with a range of concentrations of 6-oxo-1,4,5,6 tetrahydropyridazine-3-carboxylic acid and the seedlings were grown to near maturity and drought stressed. Their relative water contents were determined to examine the effectiveness of different concentrations of 6-oxo-1,4,5,6-tetrahydropyridizine-3-carboxylic acid in conferring drought resistance.
Sets of wheat (Var. VitPro) seedlings were given foliar treatments of 6-oxo-1,4,5,6 tetrahydropyridazine-3-carboxylic acid at concentrations of 1 mM or 0.1 mM in aqueous solutions. Two treatments were made; one at Zaddok GS 12(FIG. 1) and a second at Zadoks GS 14 (FIG. 1) and the plants grown until the first flag leaf was fully developed on the control plants. The treated plants and one set of controls were then drought stressed and the relative water content was determined for each set of plants. There were two sets of control plants; one was maintained with normal watering and a second control was drought stressed along with the treated plants. When each of the plants had at least two wilted leaves the water content of the drought stressed plants was determined relative to that of the normal, well-watered control plants. The flag leaves were harvested and used to determine the relative water content.

[3] = tested on: Soybean seeds (Var. Viking); test: Soybean seed treatment, germination paper, shoot fresh weight (Example 10); conditions: seeds imbibed three minutes in 0.01 mM; germination paper 75-85° F; two table lines, Control 98.3 and 106.2
Experimental: Soybean seeds were treated with 6-oxo-1,4,5,6 tetrahydropyridazine-3-carboxylic acid and the weights of the shoots were determined as shown in Table 2. Early seedling emergence is important for early establishment of a vigorous and productive crop. Soybean seeds (Var. Viking) were treated by imbibing them for three minutes with a solution of 0.01 mM 6-oxo-1,4,5,6 tetrahydropyridazine-3-carboxylic acid in an aqueous solution also containing soft soap and glycerol at pH 5.7-5.8. The control seeds were imbibed in aqueous solution containing only the soft soap and glycerol at pH 5.7-5.8. The seeds were placed on moist germination paper and allowed to germinate at 75-85° F. The fresh weights were taken to assess the shoot development.

Pepper = test: Seed treatment plus foliar spray, root and shoot biomass and emergence, pepper (Example 2)
Experimental: as §1

[4] = foliar dose 50 g/ha in 200 L/ha
[5] = foliar dose 100 g/ha in 200 L/ha
[6] = foliar dose 200 g/ha in 200 L/ha
[7] = seed treatment plus foliar spray 100 g in 200 L, 75 days post planting
[8] = seed treatment, % Emergence at 10 days post planting

O=C1CCC(C(=O)O)=NN1 [THP, 6-oxo-1,4,5,6 tetrahydropyridazine-3-carboxylic acid]
Yield as Percent Increase over Untreated (field grown wheat; Field 1): 6.25* %
Yield as Percent Increase over Untreated (field grown wheat; Field 2): 8.7* %
Yield as Percent Increase over Untreated (field grown wheat; Field 3): −0.3%
Yield as Percent Increase over Untreated (field grown wheat; Field 4): 13.9* %
Yield as Percent Increase over Untreated (field grown wheat; Field 5): 3.0%
Yield as Percent Increase over Untreated (field grown wheat; Field 6): 3.3%
Yield as Percent Increase over Untreated (field grown wheat; Field 7): 6.5%
Yield as Percent Increase over Untreated (field grown wheat; Field 8): 9.8* %
Yield as Percent Increase over Untreated (field grown wheat; Field 9): 8.1* %
average yield response compared to the untreated plants across all sites (field grown wheat; nine field plots): 0.596 tons per hectare
Dry Weight Shoot ([1]; Con 0.55): 0.74 g
Dry Weight Root ([1]; Con 1.03): 1.45 g
Root, FWt (Wheat; [4]): 2.1 g
Shoot, FWt (Wheat; [4]): 4.4 g
Root, FWt (Wheat; [5]): 1.9 g
Shoot, FWt (Wheat; [5]): 5.2 g
Root, FWt (Wheat; [6]): 2.7 g
Shoot, FWt (Wheat; [6]): 5.8 g
Root Dry Weight, % Difference vs Untreated (Corn; [7]): 8%
Shoot Dry Weight, % Difference vs Untreated (Corn; [7]): 3%
Emergence, % Difference vs Untreated (Corn; [8]): 11%
water content retained, relative to normally watered plants ([2]; two foliar treatments 0.1 mM): 67.7%
water content retained, relative to normally watered plants ([2]; two foliar treatments 1 mM): 68.3%
Shoots, Fresh wt. [3]: 114.3 mg and 128.6 mg
Root Dry Weight, % Difference vs Untreated (Pepper; [7]): 19%
Shoot Dry Weight, % Difference vs Untreated (Pepper; [7]): 9%
Emergence, % Difference vs Untreated (Pepper; [8]): 24%
